Data: patent publication US11453660B2, “Androgen receptor and glucocorticoid receptor modulators” (ONCOSTELLAE, S.L., priority 2017, dated 2022)
Counter-ions that a name gives are not always drawn.

Biological target: T1, Rat Androgen Receptor (Rattus norvegicus, UniProt P15207)
T1 construct: purchased Life Technologies A15880
T1 sequence (P15207 646-902 limits assumed): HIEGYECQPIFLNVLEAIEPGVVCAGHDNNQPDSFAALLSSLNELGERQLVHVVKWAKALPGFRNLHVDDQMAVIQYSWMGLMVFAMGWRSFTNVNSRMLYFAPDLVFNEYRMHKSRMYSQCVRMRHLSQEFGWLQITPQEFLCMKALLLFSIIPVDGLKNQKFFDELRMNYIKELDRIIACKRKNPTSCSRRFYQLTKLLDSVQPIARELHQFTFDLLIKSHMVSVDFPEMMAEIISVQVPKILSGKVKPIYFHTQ
Assay: Rat Androgen Receptor Binding (polarscreen AR competitor assay, fluorescence polarization)
Settings: displacement of Fluormone AL Green, 4 hours at RT, read-out: AR rat-fluorimetric
Experimental: Pharmacological Activity Rat Androgen Receptor Binding
The assay was carried out following the instructions of polarscreen AR competitor assay green kit (Life Technologies, Cat #.: A15880). Briefly, the test is based on measuring the changes of fluorescence polarization shown by the Fluormone AL Green. Thus, when the Fluormone is bound to the receptor, a fluorescence polarization is observed that diminishes when a ligand competes for the receptor binding site and the Fluormone gets displaced.
The inhibition values for each of the compounds are measured in duplicate at 1 and 10 μM and the plate is incubated for 4 hours at RT. Fluorescence polarization is the measured in a Tecan Infinite M1000 Pro reader (λexc=485 nm, λem=535 nm). In order to obtain a dose-response curve and calculate the potency of inhibition (expressed as IC50) for AR, a series of 1:10 dilutions in test in 1× buffer from 10 μM to 0.1 nM for each compound was carried out.

Row | SMILES | IC50
1 | CC(=O)C1=C(C)NC(C)=C(C(=O)OCC2CCCC2)C1c1csc2ncccc12 (stereo not shown) [Example C35, Cyclopentylmethyl 5-acetyl-2,6-dimethyl-4-(thieno[2,3-b]pyridin-3-yl)-1,4-dihydropyridine-3-carboxylate] | 100 to 1000 nM
2 | COC(=O)C1=C(C2CC2)NC(C)=C(C(C)=O)C1c1csc2ccccc12 (stereo not shown) [Example J1, Methyl 5-acetyl-4-(benzo[b]thiophen-3-yl)-2-cyclopropyl-6-methyl-1,4-dihydropyridine-3-carboxylate] | < 100 nM
3 | CCOC(=O)C1=C(C)NC(C)=C(C(C)=O)C1c1csc2ccccc12 (stereo not shown) [Example J2, Ethyl 5-acetyl-4-(benzo[b]thiophen-3-yl)-2,6-dimethyl-1,4-dihydropyridine-3-carboxylate] | < 100 nM
4 | CC(=O)C1=C(C)NC(C2CC2)=C(C(C)=O)C1c1csc2ccccc12 (stereo not shown) [Example J6, 1,1′-(4-(benzo[b]thiophen-3-yl)-2-cyclopropyl-6-methyl-1,4-dihydro-pyridine-3,5-diyl)diethanone] | ≥ 1000 nM
5 | CC(=O)C1=C(C)NC(C)=C(S(C)(=O)=O)C1c1csc2ccccc12 (stereo not shown) [Example J10, 1-(4-(benzo[b]thiophen-3-yl)-2,6-dimethyl-5-(methylsulfonyl)-1,4-dihydro-pyridin-3-yl)ethanone] | 100 to 1000 nM
6 | COC(=O)C1=C(C)NC(C)=C(C(C)=O)C1c1csc2cnccc12 (stereo not shown) [Example J20, Methyl 5-acetyl-2,6-dimethyl-4-(thieno[2,3-c]pyridin-3-yl)-1,4-dihydropyridine-3-carboxylate] | 100 to 1000 nM
7 | COC(=O)C1=C(C2CC2)NC(C2CC2)=C(C(C)=O)C1c1csc2ccccc12 (stereo not shown) [Example J24, Methyl 5-acetyl-4-(benzo[b]thiophen-3-yl)-2,6-dicyclopropyl-1,4-dihydropyridine-3-carboxylate] | ≥ 1000 nM
8 | COC(=O)C1=C(N)NC(C)=C(C(C)=O)C1c1csc2ccccc12 (stereo not shown) [Example K1, Methyl 5-acetyl-2-amino-4-(benzo[b]thiophen-3-yl)-6-methyl-1,4-dihydropyridine-3-carboxylate hydrochloride] | 100 to 1000 nM
9 | COC(=O)C1=C(N)NC(C)=C(C(C)=O)C1c1csc2ccccc12 (stereo not shown) [Example K2, Methyl 5-acetyl-2-amino-4-(benzo[b]thiophen-3-yl)-6-methyl-1,4-dihydropyridine-3-carboxylate trifluoromethanesulfonate] | ≥ 1000 nM
10 | CC(=O)C1=C(C)NC(C)=C(C(=O)OCc2cncc(-c3cccnc3)c2)C1c1csc2ncccc12 (stereo not shown) [Example L8, [3,3′-bipyridin]-5-ylmethyl 5-acetyl-2,6-dimethyl-4-(thieno[2,3-b]pyridin-3-yl)-1,4-dihydropyridine-3-carboxylate] | ≥ 1000 nM
11 | CC(=O)C1=C(C)NC(C)=C(C(C)=O)C1c1csc2ccc(-c3cccnc3)cc12 [Example M1, 1,1′-(2,6-dimethyl-4-(5-(pyridin-3-yl)benzo[b]thiophen-3-yl)-1,4-dihydro-pyridine-3,5-diyl)diethanone] | ≥ 1000 nM

Second part, the molecule after the results:

Row | IC50 | SMILES
12 | 100 to 1000 nM | COC(=O)C1=C(C)NC(C)=C(C(C)=O)C1c1csc2ccc(Cl)cc12 (stereo not shown) [Example J3, Methyl 5-acetyl-4-(5-chlorobenzo[b]thiophen-3-yl)-2,6-dimethyl-1,4-dihydropyridine-3-carboxylate]
13 | < 100 nM | COC(=O)C1=C(C)NC(C)=C(C(C)=O)C1c1csc2ccc(F)cc12 (stereo not shown) [Example J11, Methyl 5-acetyl-4-(5-fluorobenzo[b]thiophen-3-yl)-2,6-dimethyl-1,4-dihydropyridine-3-carboxylate]
14 | < 100 nM | COC(=O)C1=C(C)NC(C)=C(C(C)=O)C1c1csc2ccc(Br)cc12 (stereo not shown) [Example J12, Methyl 5-acetyl-4-(5-bromobenzo[b]thiophen-3-yl)-2,6-dimethyl-1,4-dihydropyridine-3-carboxylate]
15 | ≥ 1000 nM | COC(=O)C1=C(C)NC(C)=C(C(C)=O)C1c1csc2ccc(C#N)cc12 (stereo not shown) [Example J13, Methyl 5-acetyl-4-(5-cyanobenzo[b]thiophen-3-yl)-2,6-dimethyl-1,4-dihydropyridine-3-carboxylate]
16 | ≥ 1000 nM | COC(=O)C1=C(C)NC(C)=C(C(C)=O)C1c1csc2ccc(C(=O)O)cc12 (stereo not shown) [Example J14, 3-(3-acetyl-5-(methoxycarbonyl)-2,6-dimethyl-1,4-dihydropyridin-4-yl)benzo[b]thiophene-5-carboxylic acid]
17 | ≥ 1000 nM | COC(=O)C1=C(C)NC(C)=C(C(C)=O)C1c1csc2ccc(C(=O)NC3CC3)cc12 (stereo not shown) [Example J15, Methyl 5-acetyl-4-(5-(cyclopropylcarbamoyl)benzo[b]thiophen-3-yl)-2,6-dimethyl-1,4-dihydropyridine-3-carboxylate]
18 | ≥ 1000 nM | COC(=O)C1=C(C)NC(C)=C(C(C)=O)C1c1csc2ccc(C(=O)NCC3CC3)cc12 (stereo not shown) [Example J16, Methyl 5-acetyl-4-(5-((cyclopropylmethyl)carbamoyl)benzo[b]thiophen-3-yl)-2,6-dimethyl-1,4-dihydropyridine-3-carboxylate]
19 | ≥ 1000 nM | COC(=O)C1=C(C)NC(C)=C(C(C)=O)C1c1csc2ccc(C(=O)N3CCN(C)CC3)cc12 (stereo not shown) [Example J17, Methyl 5-acetyl-2,6-dimethyl-4-(5-(4-methylpiperazine-1-carbonyl)benzo[b]thiophen-3-yl)-1,4-dihydropyridine-3-carboxylate]
20 | ≥ 1000 nM | COC(=O)C1=C(C)NC(C)=C(C(C)=O)C1c1csc2ccc(C(=O)N3CCOCC3)cc12 (stereo not shown) [Example J18, Methyl 5-acetyl-2,6-dimethyl-4-(5-(morpholine-4-carbonyl)benzo[b]thiophen-3-yl)-1,4-dihydropyridine-3-carboxylate]
21 | ≥ 1000 nM | COC(=O)C1=C(C)NC(C)=C(C(C)=O)C1c1csc2ccncc12 (stereo not shown) [Example J19, Methyl 5-acetyl-2,6-dimethyl-4-(thieno[3,2-c]pyridin-3-yl)-1,4-dihydropyridine-3-carboxylate]

Biological target: T2, Human Glucocorticoid Receptor (Homo sapiens, UniProt P04150)
T2 construct: endogenous in cells; host or cells: cytosol from IM-9 cell line
T2 sequence (P04150 1-777): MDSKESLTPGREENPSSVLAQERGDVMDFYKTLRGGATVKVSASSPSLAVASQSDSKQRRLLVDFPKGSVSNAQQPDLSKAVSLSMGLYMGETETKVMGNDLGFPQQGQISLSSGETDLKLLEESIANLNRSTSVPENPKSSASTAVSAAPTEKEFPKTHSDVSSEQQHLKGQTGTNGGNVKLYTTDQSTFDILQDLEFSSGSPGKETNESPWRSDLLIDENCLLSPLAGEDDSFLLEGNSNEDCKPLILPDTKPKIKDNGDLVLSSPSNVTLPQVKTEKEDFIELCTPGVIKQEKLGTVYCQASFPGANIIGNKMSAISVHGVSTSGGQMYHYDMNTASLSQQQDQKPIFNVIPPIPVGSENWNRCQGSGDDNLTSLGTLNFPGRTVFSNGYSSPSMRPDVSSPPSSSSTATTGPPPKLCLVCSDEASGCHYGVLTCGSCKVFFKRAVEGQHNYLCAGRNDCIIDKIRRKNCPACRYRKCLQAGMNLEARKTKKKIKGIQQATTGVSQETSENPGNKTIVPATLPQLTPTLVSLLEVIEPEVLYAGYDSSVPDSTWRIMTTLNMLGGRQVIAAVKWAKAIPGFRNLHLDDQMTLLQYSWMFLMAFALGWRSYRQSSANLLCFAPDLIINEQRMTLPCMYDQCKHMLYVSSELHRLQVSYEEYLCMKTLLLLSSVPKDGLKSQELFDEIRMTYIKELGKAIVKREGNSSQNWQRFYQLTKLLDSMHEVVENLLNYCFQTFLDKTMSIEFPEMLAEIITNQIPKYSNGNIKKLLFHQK
Assay: Competition Binding in IM-9 Human Glucocorticoid Receptor (GR IM-9)
Settings: cytosol from IM-9 cell line, 1.5 nM [3H]-Dexamethasone, 4° C. for 6 hours
In short: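 Radioligand competition using 100 μg IM-9 cell cytosol and 1.5 nM [3H]-dexamethasone, incubated 6 h at 4° C in TES/molybdate buffer, pH 7.4. Filtration on PEI-treated GF/B filters, scintillation counting; nonspecific binding defined with 10 μM triamcinolone.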

Row | SMILES | IC50
22 | CC(=O)C1=C(C)NC(C)=C(C(=O)OCC2CCCC2)C1c1csc2ncccc12 (stereo not shown) [Example C35, Cyclopentylmethyl 5-acetyl-2,6-dimethyl-4-(thieno[2,3-b]pyridin-3-yl)-1,4-dihydropyridine-3-carboxylate] | < 100 nM
